Where “and” joins values, the source holds several entries; their conditions need not be identical. Equal values may be shown once. Read-outs that look alike come from different tables or passages of the source.
Tests used:
[1] = ethanol, difference spectra, two bands, cited from earlier work
[2] = ABTS radical cation scavenging assay; parameters: key to ABTS^•+ Scavenging Activity, TEAC: TEAC: ratio of compound slope to Trolox slope (Trolox equivalents); conditions: 1 h incubation; for IC50: 50% reduction of ABTS radical cation; for ABTS^•+ Scavenging Activity, TEAC: Trolox equivalent, n.a. = not active
Method: In the ABTS assay, the dark-green ABTS cation-radical (ABTS^•+) is quenched by interaction with AOs. The consequent decrease in absorbance is followed spectrophotometrically per the previously described method.
Radical scavenging activity of the compounds was assessed using the ABTS radical cation (ABTS^•+) decolorization assay with some modifications. ABTS (2,2′-azinobis-(3-ethylbenzothiazoline-6-sulfonic acid) was purchased from Tokyo Chemical Industry Co., Ltd. (Tokyo, Japan); potassium persulfate (dipotassium peroxodisulfate), Trolox (6-hydroxy-2,5,7,8-tetramethylchroman-2-carboxylic acid), and HPLC-grade ethanol and DMSO were obtained from Sigma-Aldrich (Saint Louis, MO, USA). Aqueous solutions were prepared using deionized water. All tested compounds were dissolved in DMSO.
The solution of cation radical ABTS^•+ was produced by incubation of an aqueous solution of 7 mM ABTS and 2.45 mM potassium persulfate solution in equal quantities for 12–16 h at room temperature in the dark. Radical scavenging capacity of the compounds was analyzed by mixing 10 μL of compound with 240 μL of ABTS^•+ working solution in ethanol (100 μM final concentration). The reaction was monitored for an hour at 30 °C with an interval of 10 min. Data are given for 1 h of incubation of compounds with ABTS^•+. The reduction in absorbance was measured spectrophotometrically at 734 nm using an xMark microplate UV/VIS spectrophotometer (Bio-Rad, Hercules, CA, USA). Ethanol blanks were run in each assay. Values were obtained from five replicates of each sample and three independent experiments.
The standard AO Trolox was used as a reference compound. AO capacity as Trolox equivalent (TEAC) values was determined as the ratio between the slopes obtained from the linear correlation of the ABTS radical absorbance with the concentrations of tested compounds and Trolox. Ascorbic acid was used as a positive control. […]. The compounds were tested in the concentration range of 0.5–100 µM.

[3] = target: T1, human erythrocyte AChE (Homo sapiens, UniProt P22303); test: biochemical; conditions: mean ± SEM, n = 3, read-out: Inhibitory activity against AChE, IC50
T1 construct: human erythrocyte AChE, equine serum BChE, and porcine liver CES were used; purchased Sigma-Aldrich; host or cells: human erythrocytes (tissue-derived)
Source text: (§1) Assessment of the esterase profile of new potential anti-AD molecules enables the estimation of both the primary pharmacological effects of the tested compounds—their inhibition of AChE and BChE—and their possible unwanted side effect—inhibition of CES, which hydrolyzes numerous ester-containing drugs. For the esterase profile evaluation, human erythrocyte AChE, equine serum BChE, and porcine liver CES were used. These sources of BChE and CES were employed because of their relatively low cost, high sequence identity to human enzymes, and the exploratory character of this work.
(§2) Chromophore absorbances were measured with a FLUOStar Optima microplate reader (BMG Labtech, Ortenberg, Germany). […] Initially, we used a single concentration of 20 µM for all compounds.

[4] = target: T2, equine serum BChE (Equus caballus, UniProt P81908); test: biochemical; conditions: mean ± SEM, n = 3, read-out: Inhibitory activity against BChE, IC50
T2 construct: human erythrocyte AChE, equine serum BChE, and porcine liver CES were used; purchased Sigma-Aldrich; host or cells: equine serum (tissue-derived)
Source text: as §1, §2

[5] = ethanol, difference spectra, two bands, cited from earlier work; remark: listed apart in the source
[6] = ethanol, difference spectra, two bands, cited from earlier work; remark: listed apart in the source
[7] = target: T3, AChE (Homo sapiens, UniProt P22303); test: Kinetic study of AChE inhibition (Lineweaver-Burk); type: biochemical; conditions: for αKi (non-competitive inhibition constant), AChE: mixed-type inhibition, mean ± SEM; for Ki: read-out: Ki (competitive inhibition constant), AChE
T3 construct: human erythrocyte AChE, equine serum BChE, and porcine liver CES were used; purchased Sigma-Aldrich; host or cells: human erythrocytes (tissue-derived)
Method: (§3) We assessed the mechanisms of AChE and BChE inhibition by performing a thorough analysis of enzyme kinetics. After a 5 min incubation at 25 °C (for temperature equilibration) with three increasing concentrations of inhibitor and six decreasing substrate concentrations, the residual enzyme activity was measured as described above for enzymatic assays.

[8] = target: T4, eqBChE (Equus caballus, UniProt P81908); test: Kinetic study of BChE inhibition (Lineweaver-Burk); type: biochemical; conditions: for αKi (non-competitive inhibition constant), eqBChE: mixed-type inhibition, mean ± SEM; for Ki: read-out: Ki (competitive inhibition constant), eqBChE
T4 construct: human erythrocyte AChE, equine serum BChE, and porcine liver CES were used; purchased Sigma-Aldrich; host or cells: equine serum (tissue-derived)
Method: Similar results were obtained for other tested compounds (Figures S61 and S62). The obtained values of inhibition constants (Ki = competitive component and αKi = non-competitive component) are shown in Table 2.
as §3

[9] = FRAP assay; conditions: Trolox equivalents; 60 min, 37 °C; n.a. = not active
Method: The Ferric Reducing Antioxidant Power (FRAP) test involves reduction of the ferric 2,4,6-tripyridyl-s-triazine complex [Fe(TPTZ)2]^3+ to an intense-blue ferrous complex [Fe(TPTZ)2]^2+ [92], as previously reported. Results are given as Trolox Equivalents (TE).
The FRAP (ferric reducing antioxidant power) assay proposed by Benzie and Strain [92] was modified to be performed in 96-well microplates as described in detail in [53]. The FRAP reagent contained 2.5 mL of 10 mM TPTZ (2,4,6-tris(2-pyridyl)-s-triazine, Sigma-Aldrich) solution in 40 mM HCl, 2.5 mL of 20 mM FeCl3 (Sigma-Aldrich) in distilled water and 25 mL of 0.3 M acetate buffer (pH 3.6). Aliquots of 10 µL of the test compound dissolved in DMSO (0.5 mM) were placed in quadruplicate. Absorbance was measured at a wavelength of 593 nm after 60 min incubation at 37 °C. In each case, Trolox was used as a reference compound to obtain the standard curve. The AO activity was calculated with respect to the activity of Trolox and expressed as Trolox equivalents (TE)—the values calculated as the ratio of the concentrations of Trolox and the test compound resulting in the same effect on ferric reducing activity.

[10] = Metal chelation by UV-Vis spectroscopy, Zn2+; conditions: ethanol, 25 °C; compound and metal 40 μM; difference spectra; two bands per compound
[11] = Metal chelation by UV-Vis spectroscopy, Cu2+; conditions: ethanol, 25 °C; compound and metal 40 μM; difference spectra; two bands per compound
[12] = absorption band at 337, 323, 308 nm

T4 sequence (P81908 whole entry): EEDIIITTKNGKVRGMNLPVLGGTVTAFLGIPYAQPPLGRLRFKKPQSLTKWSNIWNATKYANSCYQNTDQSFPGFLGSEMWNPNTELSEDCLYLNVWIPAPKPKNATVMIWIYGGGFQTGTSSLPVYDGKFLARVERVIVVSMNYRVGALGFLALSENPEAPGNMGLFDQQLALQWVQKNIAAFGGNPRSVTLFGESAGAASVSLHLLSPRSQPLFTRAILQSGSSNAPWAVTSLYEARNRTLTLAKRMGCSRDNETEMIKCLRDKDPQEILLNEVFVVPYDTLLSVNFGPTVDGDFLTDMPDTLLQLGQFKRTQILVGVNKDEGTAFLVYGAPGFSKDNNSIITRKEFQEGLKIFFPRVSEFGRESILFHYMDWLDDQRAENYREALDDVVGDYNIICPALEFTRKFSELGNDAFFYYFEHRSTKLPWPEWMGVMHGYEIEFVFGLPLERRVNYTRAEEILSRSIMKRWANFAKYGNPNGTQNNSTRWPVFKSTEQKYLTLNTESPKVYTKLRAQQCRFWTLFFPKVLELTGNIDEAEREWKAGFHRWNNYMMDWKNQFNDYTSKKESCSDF
T2 sequence (P81908 whole entry): as above
T1 sequence (P22303 32-617 isoform P22303-2 limits assumed): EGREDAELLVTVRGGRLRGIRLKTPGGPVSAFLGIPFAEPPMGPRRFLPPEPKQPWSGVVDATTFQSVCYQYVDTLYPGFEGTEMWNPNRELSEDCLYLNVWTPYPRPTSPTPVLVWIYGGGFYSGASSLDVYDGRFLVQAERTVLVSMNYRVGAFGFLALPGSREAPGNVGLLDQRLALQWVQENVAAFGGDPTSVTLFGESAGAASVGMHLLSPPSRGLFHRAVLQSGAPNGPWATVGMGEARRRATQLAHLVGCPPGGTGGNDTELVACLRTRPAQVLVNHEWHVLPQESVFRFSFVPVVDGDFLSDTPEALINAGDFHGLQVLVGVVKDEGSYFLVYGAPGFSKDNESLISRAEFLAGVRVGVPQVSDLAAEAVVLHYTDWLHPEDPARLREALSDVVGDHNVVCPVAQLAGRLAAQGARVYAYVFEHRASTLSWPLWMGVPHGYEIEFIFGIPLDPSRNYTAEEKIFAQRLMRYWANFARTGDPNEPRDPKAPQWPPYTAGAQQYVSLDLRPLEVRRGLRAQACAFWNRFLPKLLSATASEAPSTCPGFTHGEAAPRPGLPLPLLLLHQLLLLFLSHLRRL
T3 sequence (P22303 32-617 isoform P22303-2 limits assumed): as above

Compound: O=C(NCCCCCCNc1c2c(nc3ccccc13)CCCC2)c1ccccc1O [5b]
- Shift of Absorbance, Zn(II) ([1]; absorption band at 237 nm): 254 nm
- Shift of Absorbance, Zn(II) [1, 12]: 351 nm
- IC50 [2]: 21300 ± 1500 nM
- ABTS^•+ Scavenging Activity, TEAC [2]: 0.93 and 0.90 ± 0.05
- IC50 [3]: 294 ± 8 nM
- IC50 [4]: 11.9 ± 0.1 nM
- Shift of Absorbance, Fe(II) ([5]; absorption band at 237 nm): 254 nm
- Shift of Absorbance, Fe(II) [5, 12]: 351 nm
- Shift of Absorbance, Cu(II) ([6]; absorption band at 237 nm): 254 nm
- Shift of Absorbance, Cu(II) [6, 12]: 352 nm

Compound: Oc1ccccc1/C=N/CCCCCCCCNc1c2c(nc3ccccc13)CCCC2 [10c]
- IC50 [2]: 34200 ± 1800 nM
- ABTS^•+ Scavenging Activity, TEAC [2]: 0.42 ± 0.04
- IC50 [3]: 82.6 ± 4.6 nM
- IC50 [4]: 15.6 ± 1.2 nM
- Type of AChE inhibition ([7]; Lineweaver–Burk analysis): mixed type of inhibition
- αKi (non-competitive inhibition constant), AChE [7]: 0.0644 ± 0.0040 µM
- Ki [7]: 29.9 ± 2.1 nM
- Type of BChE inhibition ([8]; Lineweaver–Burk analysis): mixed type of inhibition
- αKi (non-competitive inhibition constant), eqBChE [8]: 0.0152 ± 0.0009 µM
- Ki [8]: 8.4 ± 0.6 nM

Compound: O=C(NCCCCCCCCNc1c2c(nc3ccccc13)CCCC2)c1cc(F)c(F)cc1O [7c]
- IC50 [2]: > 200000 nM
- ABTS^•+ Scavenging Activity, TEAC [2]: 0.040 ± 0.002
- IC50 [3]: 188 ± 15 nM
- IC50 [4]: 22.6 ± 1.8 nM
- αKi (non-competitive inhibition constant), AChE [7]: 0.134 ± 0.009 µM
- Ki [7]: 125 ± 3 nM
- αKi (non-competitive inhibition constant), eqBChE [8]: 0.0243 ± 0.0001 µM
- Ki [8]: 17.3 ± 0.6 nM
- FRAP, TE [9]: 0.06

Compound: O=C(NCCCCCCNc1c2c(nc3ccccc13)CCCC2)c1cc(F)c(F)cc1O [7b]
- IC50 [2]: > 200000 nM
- ABTS^•+ Scavenging Activity, TEAC [2]: 0.030 ± 0.001
- IC50 [3]: 249 ± 17 nM
- IC50 [4]: 31.7 ± 3 nM
- Shift of Absorbance, Zn(II) [10]: 352 nm
- Shift of Absorbance, Cu(II) [11]: 253 nm
- FRAP, TE [9]: 0.03

From publication PMC9916969 (International Journal of Molecular Sciences, 2023)
